# Biological target: T1, p101/p110γ protein (PI3Kγ) (Homo sapiens, UniProt P48736)
# T1 construct: HA; made in house; host or cells: Spodoptera frugiperda (Sf9) cells, baculovirus co-infection
# Assay: PI3Kγ in vitro kinase assay
# Format: biochemical
# Conditions: purified recombinant p101/p110γ with G protein β1/γ2 subunits, 20 μM ATP, PIP2 lipid micelles
# Method: Spodtera frugiperda cells, grown in ESF921 media, were co-infected with baculovirus expressing a glu-tagged p101 and baculovirus expressing an HA-tagged p110γ, at a 3:1 ratio of p101 baculovirus to p110γ baculovirus. Sf9 cells were grown to 1×10^7 total cells/mL in 10 L bioreactors and harvested 48-72 hours post infection. Samples of infected cells were then tested for expression of p101/p110γ PI3 kinase by immunoprecipitation and Western Blot analysis methods (see below).
# To purify PI3Kγ, 4 volumes of room temperature hypotonic lysis buffer (1 mM MgCl2, 1 mM DTT, 5 mM EGTA, 1 mM Pefabloc, 0.5 μM aprotinin, 5 μM leupeptin, 2 μM pepstatin, 5 μM E64, pH 8) per gram of cell paste, was poured onto frozen cell pellets with stirring, then lysed in a nitrogen “bomb” at 400 psi (599HC T316, Parr Instrument Co, Moline, Ill.). NaCl was added to 150 mM, and sodium cholate was added to 1% and mixed for another 45 minutes. The lysates were clarified by centrifugation for 25 minutes at 14,000 rpm. The lysates were then loaded over anti-glu-linked Protein-G Sepaharose beads (Covance Research Products, Richmond, Calif.) using 20 mL resin/50 g cell paste. The column was washed with 15 volumes of wash buffer (1 mM DTT, 0.2 mM EGTA, 1 mM Pefabloc, 0.5 μM aprotinin, 5 μM leupeptin, 2 μM pepstatin, 5 μM E64, 150 mM NaCl, 1% sodium cholate, pH 8). PI3Kγ was eluted with 6 column volumes of wash buffer that contain 100 μg/mL of a peptide that competes for binding of the glu tag. The column fractions with the eluted protein (determined by taking OD280 readings) were collected and dialyzed in 0.2 mM EGTA, 1 mM DTT, 1 mM Pefabloc, 5 μM leupeptin, 0.5% sodium cholate, 150 mM NaCl, and 50% glycerol, pH 8. The fractions were stored at −80° C. until further use.
# Spodtera frugiperda cells were coinfected with baculovirus expressing a glu-tagged G protein β1 and baculovirus expressing a G protein […], at a 1:1 ratio of glu-tagged G protein […] baculovirus to G protein β2 baculovirus. Sf9 cells are grown in 10 L bioreactors and harvested 48-72 hours post infection. Samples of infected cells were tested for G protein β1/β2 expression by Western Blot analysis, as described below. Cell lysates were homogenized and loaded onto a column of glu-tagged beads as in Biological Example 1 and competed off the column with a glu peptide and processed as described in Biological Example 1.
# The inhibitory properties of the compounds in Table 1 were assayed in an in vitro PI3K assay. In a 96-well polypropylene plate, each well was spotted with 2 μL of 50 times the desired final concentration of compound in DMSO. Purified recombinant p101/p110γ protein (0.03 μg; ˜2.7 nM) and G protein β1/γ2 subunits (0.09 μg; ˜57.7 nM) for each reaction was combined in the assay buffer (30 mM HEPES, 100 mM NaCl, 1 mM EGTA, and 1 mM DTT). ATP and [γ-^32P-ATP] (0.09 μCi) were added to this mixture so that the final ATP concentration in the reaction was 20 μM. Lipid micelles were formed by sonicating phosphatidylinositol-4,5-diphosphate (PIP2), phosphatidylethanolamine (PE), and Na-cholate in the assay buffer for 10 minutes, adding MgCl2 and incubating on ice for 20 minutes, for final concentrations of 25 μM PIP2, 300 μM PE, 0.02% Na-cholate, and 10 mM MgCl2 in the reaction. The reactions were started by adding equal volumes lipid and enzyme mixture in a total volume of 50 μL, allowed to run for 20 minutes at room temperature, and stopped with 100 μL 75 mM H3PO4. The lipid product was transferred to a glass fiber filter plate and washed with 75 mM H3PO4 several times. The presence of radioactive lipid product (PIP3) was measured by adding Wallac Optiphase mix to each well and counting in a Wallac 1450 Trilux plate reader (PerkinElmer Life Sciences Inc., Boston, Mass. 02118). The IC50 for each compound tested is reported in μM in the Tables above.
# T1 sequence (P48736 whole entry, species assumed): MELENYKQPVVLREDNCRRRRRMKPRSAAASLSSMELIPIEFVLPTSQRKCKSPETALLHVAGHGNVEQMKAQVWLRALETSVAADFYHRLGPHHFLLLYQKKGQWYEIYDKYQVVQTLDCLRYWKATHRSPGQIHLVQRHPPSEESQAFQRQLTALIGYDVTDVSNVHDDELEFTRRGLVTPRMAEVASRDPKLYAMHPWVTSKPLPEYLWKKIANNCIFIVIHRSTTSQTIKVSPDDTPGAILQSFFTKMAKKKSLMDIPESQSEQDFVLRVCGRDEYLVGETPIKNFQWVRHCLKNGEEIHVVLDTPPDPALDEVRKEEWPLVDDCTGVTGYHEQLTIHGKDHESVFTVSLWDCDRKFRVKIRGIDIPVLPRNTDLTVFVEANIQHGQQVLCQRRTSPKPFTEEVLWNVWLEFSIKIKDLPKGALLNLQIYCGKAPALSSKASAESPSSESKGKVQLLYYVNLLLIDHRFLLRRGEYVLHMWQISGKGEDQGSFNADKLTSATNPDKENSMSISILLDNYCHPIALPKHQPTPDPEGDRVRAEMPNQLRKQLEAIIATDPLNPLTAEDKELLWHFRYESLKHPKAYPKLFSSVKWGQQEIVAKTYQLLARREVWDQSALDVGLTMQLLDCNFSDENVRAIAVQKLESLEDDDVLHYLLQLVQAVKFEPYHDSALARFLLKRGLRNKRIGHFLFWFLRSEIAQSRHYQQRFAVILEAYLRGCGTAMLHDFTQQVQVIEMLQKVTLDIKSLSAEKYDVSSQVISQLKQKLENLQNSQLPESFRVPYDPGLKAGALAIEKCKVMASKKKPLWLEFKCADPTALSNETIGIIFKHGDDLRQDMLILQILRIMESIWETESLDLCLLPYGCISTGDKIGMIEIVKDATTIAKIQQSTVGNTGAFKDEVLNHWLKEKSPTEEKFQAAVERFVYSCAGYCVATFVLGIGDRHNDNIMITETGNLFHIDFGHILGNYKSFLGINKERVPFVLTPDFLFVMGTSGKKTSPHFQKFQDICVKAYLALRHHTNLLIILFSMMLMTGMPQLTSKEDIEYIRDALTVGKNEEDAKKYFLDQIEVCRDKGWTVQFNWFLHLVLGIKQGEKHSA
# T1 sequence (Q8WYR1 whole entry partner, species assumed): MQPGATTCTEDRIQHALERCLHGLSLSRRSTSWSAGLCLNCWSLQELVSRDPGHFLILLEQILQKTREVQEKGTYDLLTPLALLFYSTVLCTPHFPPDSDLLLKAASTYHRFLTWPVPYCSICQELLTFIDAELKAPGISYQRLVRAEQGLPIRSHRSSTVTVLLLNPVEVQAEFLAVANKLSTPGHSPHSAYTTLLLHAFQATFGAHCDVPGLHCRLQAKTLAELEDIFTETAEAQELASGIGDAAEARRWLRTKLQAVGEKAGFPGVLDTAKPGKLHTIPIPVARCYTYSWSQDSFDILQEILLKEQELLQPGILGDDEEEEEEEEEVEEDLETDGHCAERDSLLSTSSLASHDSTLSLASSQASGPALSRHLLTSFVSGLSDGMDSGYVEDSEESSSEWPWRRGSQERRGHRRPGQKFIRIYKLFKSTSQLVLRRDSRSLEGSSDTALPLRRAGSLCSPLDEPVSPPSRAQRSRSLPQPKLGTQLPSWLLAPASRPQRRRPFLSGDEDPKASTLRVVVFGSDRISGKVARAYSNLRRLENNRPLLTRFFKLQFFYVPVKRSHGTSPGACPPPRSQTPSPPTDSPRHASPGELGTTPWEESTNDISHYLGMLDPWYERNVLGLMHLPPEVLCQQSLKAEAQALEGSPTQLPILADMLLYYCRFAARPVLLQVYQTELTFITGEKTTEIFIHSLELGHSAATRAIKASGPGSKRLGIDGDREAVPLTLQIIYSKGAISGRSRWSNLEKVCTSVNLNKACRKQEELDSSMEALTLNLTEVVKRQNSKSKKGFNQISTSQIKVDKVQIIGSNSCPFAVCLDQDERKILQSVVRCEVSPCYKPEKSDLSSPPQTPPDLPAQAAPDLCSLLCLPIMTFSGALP
row,Compound,IC50 [µM]
1,"O=C(Nc1nn[nH]n1)c1cnc(N2CCOCC2)nc1OC1CCCCC1 [Example 4, 4-Cyclohexyloxy-2-morpholin-4-yl-pyrimidine-5-carboxylic acid (2H-tetrazol-5-yl)-amide]",1.74
2,"CC(C)Oc1nc(N2CCOCC2)ncc1C(=O)Nc1nn[nH]n1 [Example 3, 4-Isopropoxy-2-morpholin-4-yl-pyrimidine-5-carboxylic acid (2H-tetrazol-5-yl)-amide]",87.5
3,"O=C(Nc1nn[nH]n1)c1cnc(N2CCOCC2)nc1OC1CCOCC1 [Example 10, 2-Morpholin-4-yl-4-(tetrahydro-pyran-4-yloxy)-pyrimidine-5-carboxylic acid (2H-tetrazol-5-yl)-amide]",10.5
4,"CC1(C)CCCC(Oc2nc(N3CCOCC3)ncc2C(=O)Nc2nn[nH]n2)C1 (stereo not drawn) [Example 9, 4-(3,3-Dimethyl-cyclohexyloxy)-2-morpholin-4-yl-pyrimidine-5-carboxylic acid (2H-tetrazol-5-yl)-amide]",1.36
5,"O=C(Nc1nn[nH]n1)c1cnc(N2CCOCC2)nc1OC1CCCCCCC1 [Example 5, 4-Cyclooctyloxy-2-morpholin-4-yl-pyrimidine-5-carboxylic acid (2H-tetrazol-5-yl)-amide]",0.502
6,"COCCOc1nc(N2CCOCC2)ncc1C(=O)Nc1nn[nH]n1 [Example 8, 4-(2-Methoxy-ethoxy)-Z-morpholin-4-yl-pyrimidine-5-carboxylic acid (2H-tetrazol-5-yl)-amide]",2.32
7,"O=C(Nc1nn[nH]n1)c1cnc(N2CCOCC2)nc1OCC1CCCCC1 [Example 7, 4-Cyclohexylmethoxy-2-morpholin-4-yl-pyrimidine-5-carboxylic acid (2H-tetrazol-5-yl)-amide]",1.83
8,"O=C(Nc1nn[nH]n1)c1cnc(N2CCOCC2)nc1OC1CCCC1 [Example 2, 4-Cyclopentyloxy-2-morpholin-4-yl-pyrimidine-5-carboxylic acid (2H-tetrazol-5-yl)-amide]",1.54
9,"O=C(Nc1nn[nH]n1)c1cnc(N2CCOCC2)nc1OCCC1CCCCC1 [Example 6, 4-(2-Cyclohexyl-ethoxy)-2-morpholin-4-yl-pyrimidine-5-carboxylic acid (2H-tetrazol-5-yl)-amide]",10.1

# Next, values leading:
row,IC50 [µM],Compound
1,1.16,"CC(C)C(C)Oc1nc(N2CCOCC2)ncc1C(=O)Nc1nn[nH]n1 (stereo not drawn) [Example 14, 4-(1,2-Dimethyl-propoxy)-2-morpholin-4-yl-pyrimidine-5-carboxylic acid (2H-tetrazol-5-yl)-amide]"
2,0.845,"O=C(Nc1nn[nH]n1)c1cnc(N2CCOCC2)nc1OC1CC2CCC1C2 (stereo not drawn) [Example 12, 4-(Bicyclo[2.2.1]hept-2-yloxy)-2-morpholin-4-yl-pyrimidine-5-carboxylic acid (2H-tetrazol-5-yl)-amide]"
3,39.1,"O=C(Nc1nnn[nH]1)c1cnc(N2CCOCC2)nc1NCc1ccccc1 [Example 20, 4-Benzylamino-2-morpholin-4-ylpyrimidine-5-carboxylic acid (1H-tetrazol-5-yl)-amide]"
4,32.7,"O=C(Nc1nnn[nH]1)c1cnc(N2CCOCC2)nc1NC1CCCC1 [Example 19, 4-Cyclopentylamino-2-morpholin-4-yl-pyrimidine-5-carboxylic acid (1H-tetrazol-5-yl)-amide]"
5,0.485,"O=C(Nc1nn[nH]n1)c1cnc(N2CCOCC2)nc1OC1C2CC3CC(C2)CC1C3 (stereo not drawn) [Example 11, 4-(Adamantan-2-yloxy)-2-morpholin-4-yl-pyrimidine-5-carboxylic acid (2H-tetrazol-5-yl)-amide]"
6,28.6,"O=C(Nc1nnn[nH]1)c1cnc(N2CCOCC2)nc1NC1CCCCC1 [Example 21, 4-Cyclohexylamino-2-morpholin-4-yl-pyrimidine-5-carboxylic acid (1H-tetrazol-5-yl)-amide]"
7,2.06,"CC(C)(C)COc1nc(N2CCOCC2)ncc1C(=O)Nc1nn[nH]n1 [Example 13, 4-(2,2-Dimethyl-propoxy)-2-morpholin-4-yl-pyrimidine-5-carboxylic acid (2H-tetrazol-5-yl)-amide]"
8,0.805,"CC(C)c1ccc(Oc2nc(N3CCOCC3)ncc2C(=O)Nc2nn[nH]n2)cc1 [Example 17, 4-(4-Isopropyl-phenoxy)-2-morpholin-4-yl-pyrimidine-5-carboxylic acid (2H-tetrazol-5-yl)-amide]"
9,8.44,"Cc1nc(N2CCOCC2)nc(OC2CCCCCC2)c1C(=O)Nc1nn[nH]n1 [Example 22, 4-Cycloheptyloxy-6-methyl-2-morpholin-4-yl-pyrimidine-5-carboxylic acid (2H-tetrazol-5-yl)-amide]"
10,0.21,"CC1CC(C)CC(Oc2nc(N3CCOCC3)ncc2C(=O)Nc2nn[nH]n2)C1 (stereo not drawn) [Example 16, 4-(3,5-Dimethyl-cyclohexyloxy)-2-morpholin-4-yl-pyrimidine-5-carboxylic acid (2H-tetrazol-5-yl)-amide]"
11,1.69,"CC1(COc2nc(N3CCOCC3)ncc2C(=O)Nc2nn[nH]n2)CC1 [Example 15, 4-(1-Methyl-cyclopropylmethoxy)-2-morpholin-4-yl-pyrimidine-5-carboxylic acid (2H-tetrazol-5-yl)-amide]"
12,0.154,"O=C(Nc1nn[nH]n1)c1cnc(N2CCOCC2)nc1Oc1ccc(C2CCCCC2)cc1 [Example 18, 4-(4-Cyclohexyl-phenoxy)-2-morpholin-4-yl-pyrimidine-5-carboxylic acid (2H-tetrazol-5-yl)-amide]"

# — patent US20090227587A1, “Pyrimidines as inhibitors of phosphoinositide-3-kinases (PI3K)” (Warner-Lambert Company LLC, priority 2003, published 2009)
